“Also recorded” adds a separate entry of the source.
Columns and labels:
[1] = system: retinal neovascularization; experiment: Oxygen-induced retinopathy mouse model (retinopathy of prematurity), retinal neovascularization; assay type: in vivo
Procedure: SNACH and SNACH Nanoparticles (1 mg/kg) in PBS at pH 7-7.5, Control: PBS at 1 mg/ml on postnatal day 12 and 15, Mode of Administration: Intraperitoneal or eye drops.
An animal model of a mice model was used. The mice model used was the Oxygen-induced retinopathy mouse model as described by Smith L E, W. E., McLellan A, Kostyk S K, D'Amato R, Sullivan R, D'Amore P A. (1994), “Oxygen-induced retinopathy in the mouse”, Invest Ophthalmol Vis Sci 35(1): 101-111.
The neonatal mice were exposed to hyperoxic conditions for 5 days, beginning at age p7 for the pups and continuing through p12 when they are returned to normal oxygen atmosphere (8-10 animals/group). Treatment group SNACH at 1 mg/kg administered IP or eye drops at two separate doses one at P12 and the other at P15. Day 17 animals were scarified and eyes removed for retinal Neovascularization evaluation. The removed eyes were stained with H&E stain. Additionally in upcoming study 3 additional animals per group were used for ocular tissue levels of SNACH after SNACH administration by LC/MS/MS.
Induction of oxygen-induced retinopathy in mouse model, in accordance with embodiments of the present invention. […]

[2] = system: Neovascularization-mediated by VEGF+FGF2; experiment: Chick chorioallantoic membrane (CAM) model of angiogenesis; assay type: in vivo; conditions: VEGF and FGF2 at 1 μg/ml each, SNACH 2 ug/CAM, 3-day incubation
Procedure: The effect of SNACH on Neovascularization-mediated by VEGF+FGF2 was examined in the CAM model. Briefly, ten-day old chick embryos were purchased from Spafas, Inc. (Preston, Conn.) and incubated at 37° C. with 55% relative humidity. A hypodermic needle was used to make a small hole in the shell at the air sac and a second hole will be made on the broadside of the egg, directly over an avascular portion of the embryonic membrane that will be identified by candling. A false air sac was created beneath the second hole by the application of negative pressure at the first hole, causing the CAM to separate from the shell. A window, approximately 1.0 cm^2, was cut in the shell over the dropped CAM with a small crafts grinding wheel (Dremel, Division of Emerson Electric Co., Racine, Wis.), allowing direct access to the underlying CAM. […] Digital images of CAM sections exposed to filters were collected, using a 3-CCD color video camera system (Toshiba America, New York, N.Y.), and analyzed with Image-Pro software (Media Cybernetics, Silver Spring, Md.). The numbers of vessel branch points contained in a circular region equal to the area of each filter disk were counted. One image were counted in each CAM preparation, and findings from 6-8 CAM preparations/group were analyzed for each treatment condition.

[3] = system: neovascularization secondary to ROP; conditions: intravitreal injection; cited from earlier work
[4] = system: choroidal neovascular membranes; conditions: wet AMD, Phase 3 clinical trials; cited from earlier work

sulfated non-anticoagulant heparin [SNACH]
neovascular regression in ROP mice model ([1]; ROP mice): causes neovascular regression | inhibition of retinal neovascularization (mean total area of neovascularization) ([1]; neonatal mouse, 1.0 mg/kg, IP on day 12 and 15): 60-70% | inhibition of angiogenesis induced by VEGF and FGF2 [2]: maximal inhibition of angiogenesis; also recorded: potent angiogenesis inhibitors

bevacizumab
regression of neovascularization secondary to ROP [3]: regression of neovascularization

B1: ranibizumab (antibody, chains of the INN, looked up, V domains shown)
VH: EVQLVESGGGLVQPGGSLRLSCAASGYDFTHYGMNWVRQAPGKGLEWVGWINTYTGEPTYAADFKRRFTFSLDTSKSTAYLQMNSLRAEDTAVYYCAKYPYYYGTSHWYFDVWGQGTLVTVSS
VL: DIQLTQSPSSLSASVGDRVTITCSASQDISNYLNWYQQKPGKAPKVLIYFTSSLHSGVPSRFSGSGSGTDFTLTISSLQPEDFATYYCQQYSTVPWTFGQGTKVEIK
modifications: Fab
notes: anti-VEGF pharmacotherapy (Lucentis, Genentech)
regression of choroidal neovascular membranes [4]: regression of choroidal neovascular membranes
